The values below come from article PMC9230671, “Fluorochrome Selection for Imaging Intraoperative Ovarian Cancer Probes” (Pharmaceuticals, 2022).

As usually defined, the IC50 is the concentration needed to halve the response being measured. The term melting point denotes the temperature of the solid-liquid transition.

In one data set the target is T1, COX-1 (Ovis aries, UniProt P05979).
T1 construct: purchased Cayman Chemicals (bought through Sigma-Aldrich) 560131
T1 sequence (P05979 25-600): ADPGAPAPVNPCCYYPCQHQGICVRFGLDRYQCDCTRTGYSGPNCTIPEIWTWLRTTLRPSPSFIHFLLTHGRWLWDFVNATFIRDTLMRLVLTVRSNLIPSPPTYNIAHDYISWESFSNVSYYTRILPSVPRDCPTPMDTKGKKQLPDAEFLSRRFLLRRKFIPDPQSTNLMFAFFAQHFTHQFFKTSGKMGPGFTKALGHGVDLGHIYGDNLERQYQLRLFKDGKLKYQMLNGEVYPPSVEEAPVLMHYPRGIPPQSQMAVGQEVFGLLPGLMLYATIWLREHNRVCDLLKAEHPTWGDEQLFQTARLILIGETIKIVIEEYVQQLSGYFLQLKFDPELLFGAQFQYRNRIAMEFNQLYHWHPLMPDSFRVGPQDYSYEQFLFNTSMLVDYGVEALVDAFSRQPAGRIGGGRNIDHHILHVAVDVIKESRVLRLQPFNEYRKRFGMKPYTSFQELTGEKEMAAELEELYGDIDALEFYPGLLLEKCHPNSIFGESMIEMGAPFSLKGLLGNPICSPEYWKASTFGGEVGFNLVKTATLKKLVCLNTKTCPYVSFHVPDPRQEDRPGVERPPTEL
The data set is described as follows: COX-1 inhibition, COX (ovine/human) inhibitor screening assay kit. It counts as biochemical. As for the experimental part:
(§1) Cell culture reagents were purchased from Euroclone (Milan, Italy). COX (ovine/human) inhibitor screening assay kit (Catalog No. 560131, Cayman Chemicals, Ann Arbor, MI, USA) was purchased from Sigma-Aldrich, Burlington, MA, USA. […] The other reagents were purchased from Sigma-Aldrich, Burlington, MA, USA.
(§2) The COX-1/2 inhibition screening experiments were carried out according to the manufacturer’s instructions. The plate was incubated for 60 min at r.t. under shaking and read with the Tecan Infinite 200 Microplate Reader at λ = 405 nm.
(§3) The graph between percent inhibition of the enzyme and corresponding concentration of the compound provided IC50 values for the probe compounds.

For the next data set, the target named is T2, COX-2 (Homo sapiens, UniProt P35354).
T2 construct: purchased Cayman Chemicals (bought through Sigma-Aldrich) 560131
T2 sequence (P35354 18-604): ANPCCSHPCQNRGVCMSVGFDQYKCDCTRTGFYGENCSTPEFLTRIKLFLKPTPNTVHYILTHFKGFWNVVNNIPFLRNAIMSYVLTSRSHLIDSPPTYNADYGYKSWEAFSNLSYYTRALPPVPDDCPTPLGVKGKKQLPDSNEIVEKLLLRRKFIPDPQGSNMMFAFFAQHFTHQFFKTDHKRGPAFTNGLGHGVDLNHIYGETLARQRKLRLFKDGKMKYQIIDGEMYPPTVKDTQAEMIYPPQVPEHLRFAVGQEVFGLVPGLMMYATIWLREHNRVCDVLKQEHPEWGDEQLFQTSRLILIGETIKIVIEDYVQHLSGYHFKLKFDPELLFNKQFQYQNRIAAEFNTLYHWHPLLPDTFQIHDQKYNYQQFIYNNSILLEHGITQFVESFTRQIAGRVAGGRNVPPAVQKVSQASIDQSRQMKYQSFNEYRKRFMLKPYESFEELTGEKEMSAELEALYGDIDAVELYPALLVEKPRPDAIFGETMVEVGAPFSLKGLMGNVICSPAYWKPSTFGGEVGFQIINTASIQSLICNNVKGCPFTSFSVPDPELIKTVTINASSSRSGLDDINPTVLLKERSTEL
Put plainly: COX-2 inhibition, COX (ovine/human) inhibitor screening assay kit. It counts as biochemical. As for the experimental part: as §1, §2, §3

The nature of data set [1]: Fluorescence property measurements (absorption/emission spectra). Particulars: ethanol (10^−5 M). On the set-up: Stokes Shift: unit not given here. It counts as physicochemical. As for the experimental part:
The λabs and λem, of the target compounds were measured in aqueous solution (phosphate-buffered saline solution, PBS) at the concentration of 10^−5 M (Table 1).
Fluorescence spectra of all target compounds were determined in PBS and EtOH solutions (Table 1) with a Tecan Infinite 200 Microplate Reader. In all experiments, the excitation and the emission bandpass were set at λ = 5 nm. The emission spectra were obtained from λ = 280 to 850 nm, with excitation set at the appropriate excitation wavelength. Absorption spectra were recorded with a Shimadzu UV-1800 spectrophotometer.

A short description of data set [2]: Solubility in PBS (remark). The class given is physicochemical. The source says:
Despite of the solvent, the Stokes shift was very low with this fluorophore.

Marks after values point to notes of the source that are not given here.

In turn, `CCCN1C(=O)c2cccc3c(Nc4ccc(NC(=O)Cc5onc(-c6ccc(OC)cc6)c5-c5ccc(OC)cc5)cc4)ccc(c23)C1=O` [Compound 17b, 2-(3,4-Bis(4-methoxyphenyl)isoxazol-5-yl)-N-(4-((1,3-dioxo-2-propyl-2,3-dihydro-1H-benzo[de]isoquinolin-6-yl)amino)phenyl)acetamide] had a melting point of 112 to 115 °C. On COX-1, the IC50 worked out at 150 nM and the “SI (selectivity index)” value is listed as above 333. In addition, the inhibition at 50 µM at COX-1 (at 50 µM compound final concentration, read-out: COX-1 % inhib.) came out at 49%. Besides, at COX-2, the IC50 is above 50000 nM. Moreover, at COX-2 (up to 50 µM final concentration), the “COX-2 inhibitory activity (in words)” value was “almost inactive”. Besides, in data set [1], the “Stokes Shift” value came out at 92, the λabs was 450 ^b nm and the λem is 542 ^b nm. The “solubility in PBS” value in data set [2] is listed as “low solubility”.
